Test results: patent US8288375B2, “Fungicidal bicyclic pyrazoles” (E.I. du Pont de Nemours and Company, priority 2007, dated 2012)

Columns and labels:
Assay type in all cases: in vivo
Septoria tritici = experiment: Test E: wheat leaf blotch, test suspension sprayed on wheat seedlings, disease rating; details: 200 ppm test suspension; for pest or weed control at 200 ppm: Zymoseptoria tritici, 504 h;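 as to all read-outs here: 200 ppm unless marked * meaning 40 ppm or ** meaning 10 ppm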
[1] = test system: Puccinia recondite f sp. tritici; experiment: Test B: wheat leaf rust, test suspension sprayed on wheat seedlings, disease rating; details: 200 ppm test suspension; for pest or weed control at 200 ppm: Puccinia, 192 h;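 as to all read-outs here: 200 ppm unless marked * meaning 40 ppm or ** meaning 10 ppm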
Fusarium graminearum = experiment: whole plant or invertebrate; details: for Test C disease control rating: 200 ppm test suspension; for pest or weed control at 200 ppm: Fusarium graminearum, in Triticum aestivum, 192 h, read-out: Test C disease control rating
[2] = test system: Erysiphe graminis f. sp. tritici; experiment: Test A: wheat powdery mildew, test suspension sprayed on wheat seedlings, disease rating; details: 200 ppm test suspension, 100 = 100% disease control, 0 = no control; for pest or weed control at 200 ppm: Blumeria graminis, 192 h
Pythium aphanidermatum = experiment: Test L: bluegrass pythium blight, test suspension sprayed on bluegrass seedlings, disease rating; details: 200 ppm test suspension; for pest or weed control at 200 ppm: Pythium aphanidermatum, 120 h;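 as to all read-outs here: 200 ppm unless marked * meaning 40 ppm or ** meaning 10 ppm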
Septoria nodorum = experiment: Test D: wheat glume blotch, test suspension sprayed on wheat seedlings, disease rating; details: 200 ppm test suspension; for pest or weed control at 200 ppm: Parastagonospora nodorum, 216 h
Phytophthora infestans = experiment: whole plant or invertebrate; details: for Test J disease control rating: 200 ppm test suspension; for pest or weed control at 200 ppm: Phytophthora infestans, in Solanum lycopersicum, 120 h, read-out: Test J disease control rating

Compound | Test E disease control rating (Septoria tritici) | Test B disease control rating [1] | Test C disease control rating (Fusarium graminearum) | Test A disease control rating [2] | Test L disease control rating (Pythium aphanidermatum) | Test D disease control rating (Septoria nodorum) | Test J disease control rating (Phytophthora infestans) | pest or weed control at 200 ppm (Septoria tritici) | pest or weed control at 200 ppm [1] | pest or weed control at 200 ppm (Fusarium graminearum) | pest or weed control at 200 ppm [2] | pest or weed control at 200 ppm (Pythium aphanidermatum) | pest or weed control at 200 ppm (Septoria nodorum) | pest or weed control at 200 ppm (Phytophthora infestans)
Fc1ccc(-c2nn3c(c2-c2ccnc(NCc4cccs4)n2)CCCC3)cc1 [compound 39] | 88% | 67% | 60% | 0% | 0% | 60% | 0% | – | – | – | – | – | – | –
CC(CO)Nc1nccc(-c2c(-c3ccccc3F)nn3c2CCCC3)n1 (centres unmarked) [compound 38] | 92% | 94% | 96% | 0% | 99% | 64% | 95% | – | – | – | – | – | – | –
CONc1nccc(-c2c(-c3ccc(F)cc3)nn3c2CCCC3)n1 [compound 65] | 98% | 65% | 87% | 28% | 99% | 31% | 43% | – | – | – | – | – | – | –
CC(CO)Nc1nccc(-c2c(-c3ccc(F)cc3F)nn3c2COCC3)n1 (centres unmarked) [compound 127] | 86% | 97% | 96% | 0% | 99% | 60% | 100% | – | – | – | – | – | – | –
Cc1cc(-c2nn3c(c2-c2ccnc(NC4CC4)n2)COCC3)ccc1F [compound 119] | 87% | 76% | 100% | 61% | 92% | 99% | 93% | – | – | – | – | – | – | –
CCC(C)Nc1nccc(-c2c(-c3cccc(F)c3)nn3c2CCC3)n1 (centres unmarked) [compound 101] | 94% | 89% | 99% | 0% | 91% | 92% | 57% | – | – | – | – | – | – | –
Cc1cc(-c2nn3c(c2-c2ccnc(NC(C)C)n2)COCC3)ccc1F [compound 120] | 95% | 90% | 100% | 86% | 98% | 100% | 88% | – | – | – | – | – | – | –
COCC(C)Nc1nccc(-c2c(-c3ccccc3F)nn3c2CCC3)n1 (centres unmarked) [compound 96] | 62% | 19% | 96% | 0% | 83% | 0% | 98% | – | – | – | – | – | – | –
CC(C)CNc1nccc(-c2c(-c3ccc(F)cc3)nn3c2CCCC3)n1 [compound 29] | 85% | 95% | 100% | 0% | 0% | 98% | 47% | – | – | – | – | – | – | –
C[C@@H](CO)Nc1nccc(-c2c(-c3ccc(F)cc3)nn3c2CCCC3)n1 [compound 48] | 99% | 99% | 99% | 0% | 100% | 0% | 99% | – | – | – | – | – | – | –
CC(C)Nc1nccc(-c2c(-c3ccsc3)nn3c2COCC3)n1 [compound 118] | 82% | 86% | 98% | 0% | 99% | 78% | 80% | – | – | – | – | – | – | –
CC(COC(=O)CCC(=O)O)Nc1nccc(-c2c(-c3ccc(F)cc3)nn3c2CCCC3)n1 (centres unmarked) [compound 66] | 72% | 88% | 83% | 0% | 100% | 0% | 97% | – | – | – | – | – | – | –
CC(C)CNc1nccc(-c2c(-c3ccccc3F)nn3c2CCC3)n1 [compound 98] | 95% | 74% | 97% | 0% | 99% | 82% | 88% | – | – | – | – | – | – | –
CC(CO)Nc1nccc(-c2c(-c3ccc(F)cc3)nn3c2CSCC3)n1 (centres unmarked) [compound 111] | 31% | 95% | 95% | 21% | 100% | 64% | 80% | – | – | – | – | – | – | –
CC(C)Nc1nccc(-c2c(-c3ccsc3)nn3c2CCCC3)n1 [compound 43] | 96% | 92% | 98% | 0% | 100% | 90% | 97% | – | – | – | – | – | – | –
CC(CO)Nc1nccc(-c2c(-c3ccccc3)nn3c2COCC3)n1 (centres unmarked) [compound 122] | 80% | 96% | 99% | 0% | 100% | 73% | 99% | – | – | – | – | – | – | –
Fc1cc(F)cc(-c2nn3c(c2-c2ccnc(NC4CC4)n2)CCC3)c1 [compound 104] | 88% | 0% | 55% | 0% | 91% | 0% | 88% | – | – | – | – | – | – | –
Fc1ccc(Nc2nccc(-c3c(-c4ccc(F)cc4)nn4c3CCCC4)n2)cc1 [compound 40] | 98% | 85% | 84% | 0% | 0% | 99% | 0% | – | – | – | – | – | – | –
CC(C)Nc1nccc(-c2c(-c3ccc(F)cc3)nn3c2CS(=O)(=O)CC3)n1 [Compound 114, 4-[2-(4-fluorophenyl)-6,7-dihydro-5,5-dioxido-4H-pyrazolo[5,1-c][1,4]thiazin-3-yl]-N-(1-methylethyl)-2-pyrimidinamine] | – | – | – | – | – | – | – | 86% | 100% | 94% | 57% | 100% | 73% | 100%
OCCCNc1nccc(-c2c(-c3ccc(F)cc3)nn3c2CCCC3)n1 [compound 37] | 68% | 86% | 96% | 70% | 93% | 0% | 95% | – | – | – | – | – | – | –
Fc1ccc(-c2nn3c(c2-c2ccnc(NC4CC4)n2)COCC3)c(F)c1 [compound 126] | 70% | 86% | 99% | 0% | 99% | 82% | 87% | – | – | – | – | – | – | –
OCC(CO)Nc1nccc(-c2c(-c3ccc(F)cc3)nn3c2CCCC3)n1 [compound 63] | 82% | 91% | 0% | 81% | 100% | 0% | 9% | – | – | – | – | – | – | –
Fc1ccc(-c2nn3c(c2-c2ccnc(Oc4ccc(-n5cccc5)cc4)n2)CCCC3)cc1 [Compound 106] | 72% | 94% | 92% | 0% | 0% | 69% | 9% | – | – | – | – | – | – | –
C[C@H](CO)Nc1nccc(-c2c(-c3ccc(F)cc3)nn3c2CCCC3)n1 [compound 47] | 94% | 91% | 69% | 0% | 100% | 0% | 99% | – | – | – | – | – | – | –
CC(C)Nc1nccc(-c2c(-c3ccc(F)cc3F)nn3c2COCC3)n1 [compound 125] | 88% | 86% | 100% | 20% | 100% | 89% | 100% | – | – | – | – | – | – | –
CC(=O)Nc1nccc(-c2c(-c3ccc(F)cc3)nn3c2CCCC3)n1 [Compound 52, N-[4-[2-(4-fluorophenyl)-4,5,6,7-tetrahydropyrazolo[1,5-a]pyridin-3-yl]-2-pyrimidinyl]acetamide] | – | – | – | – | – | – | – | 98% | 100% | 99% | 0% | 100% | 97% | 95%
